# Measurements taken from ChEMBL document CHEMBL1139104, “Synthesis and evaluation of 4-O-alkylated 2-deoxy-2,3-didehydro-N-acetylneuraminic acid derivatives as inhibitors of human parainfluenza virus type-3 sialidase activity” (Bioorg Med Chem Lett, 2007).
# Assay: Inhibition of sialidase in Human parainfluenza virus 3 C243
# Set-up: species or system Human respirovirus 3
compound,measurement,value
CCCCCCCCCCO[C@H]1C=C(C(=O)O)O[C@@H]([C@H](O)[C@H](O)CO)[C@@H]1NC(C)=O,IC50,10 µM
CC(=O)N[C@H]1[C@H]([C@H](O)[C@H](O)CO)OC(C(=O)O)=C[C@@H]1OCc1ccccc1,IC50,10 µM
CCO[C@H]1C=C(C(=O)O)O[C@@H]([C@H](O)[C@H](O)CO)[C@@H]1NC(C)=O,IC50,3 µM
CCCCCCO[C@H]1C=C(C(=O)O)O[C@@H]([C@H](O)[C@H](O)CO)[C@@H]1NC(C)=O,IC50,5 µM
CC(=O)N[C@H]1[C@H]([C@H](O)[C@H](O)CO)OC(C(=O)O)=C[C@@H]1OCc1ccccc1-c1ccccc1,IC50,30 µM
CC(=O)N[C@H]1[C@H]([C@H](O)[C@H](O)CO)OC(C(=O)O)=C[C@@H]1O [NEU5AC2EN],IC50,24 µM
CC(=O)N[C@H]1[C@H]([C@H](O)[C@H](O)CO)OC(C(=O)O)=C[C@@H]1NC(=N)N [ZANAMIVIR],IC50,25 µM
